Measurements taken from ChEMBL document CHEMBL1154572, “Stephanotic acid, a novel cyclic pentapeptide from the stem of Stephanotis floribunda” (2000).

What was measured:
KB = experiment: Cytotoxicity against human KB cells; assay type: functional; details: read-out: ED50
L1210 = experiment: Cytotoxicity against mouse L1210 cells; assay type: functional; details: L1210, read-out: ED50

Q: For `CC[C@H](C)[C@@H]1NC(=O)[C@@H](NC(=O)[C@@H]2CCC(=O)N2)[C@@H](C(C)C)c2ccc3c(c[nH]c3c2)C[C@@H](C(=O)OC)NC(=O)[C@H](C(C)C)NC1=O` [METHYL STEPHANATE], which EC50 (KB) is on record?
A: > 50 µg/mL

Q: And the EC50 (L1210)?
A: > 50 µg/mL

Q: How did the EC50 (KB) turn out when `CC[C@H](C)[C@@H]1NC(=O)[C@@H](NC(=O)[C@@H]2CCC(=O)N2)[C@@H](C(C)C)c2ccc3c(c[nH]c3c2)C[C@@H](C(=O)O)NC(=O)[C@H](C(C)C)NC1=O` [STEPHANOTIC ACID] was run?
A: > 50 µg/mL

Q: And the EC50 (L1210)?
A: > 50 µg/mL
